Patent US11576945B2, “Treatment for ischemic stroke” (CHS Pharma Inc., priority 2018, dated 2023)

How the values were obtained:
[1] = test system: PC-12 cells; assay: Western blot of stress/apoptosis markers in PC-12 cells under hypoxia/reoxygenation; type: cell-based
Procedure: For the Western blot assays, animals were deeply anesthetized by isoflurane (Phoenix) and decapitated, and then brains were rapidly removed. After sacrifice, the while the brain was on ice, the left hemisphere and the right hemisphere (identical parts) were quickly dissected on dry ice and homogenized in Lysis buffer consisting of 50 mM Tris-HCl, 150 mM NaCl, 2 mM EDTA, pH 8.0, 1% Triton-X-100, 1:100 dilution of mammalian protease inhibitors (Sigma-Aldrich, MO, USA) and protease inhibitor for immunoblotting. Protein concentrations of each sample solution were determined with a Bradford protein assay, and samples were stored at −80° C. until use. Protein samples were separated by 12% sodium dodecyl sulfate-polyacrylamide gel electrophoresis and transferred onto nitrocellulose membranes. Western blot was performed using the following primary antibodies overnight: abcam: GRP 78, HSP70, HSP 27, activating transcription factor 4 (ATF4), and X-box-binding protein 1 (XBP-1) (1:500); Cell Signaling: GAPDH (1:3,000), Bax, BCL2 (1:1,000), AKT, phosphorylated AKT (p-AKT); Santa Cruz: CHOP/GADD153); Imgenex: ATF6 (1:1,500). The membranes were washed three times with Tris-buffered saline containing 0.1% Tween-20 (TBS-T) and incubated with secondary antibodies for 1 hour at room temperature. Secondary antibodies used were goat IRDye 800-conjugated anti-rabbit (1:15,000) and IRDye 680 conjugated anti-mouse (1:15,000) antibodies (LI-COR Biosciences, Lincoln, Nebr., USA). Fluorescent signals were detected with a LI-COR Odyssey Fc system and the images were quantified with the provided either Image Studio 2.0 software or image J software.
(§1) In another set of experiments, the effect of carbamathione on cell viability and expression of various biomarkers in PCT-12 cells exposed to hypoxia/reoxygenation was evaluated. Referring to FIG. 9, PC-12 cells were exposed to hypoxia and reoxygenation in the presence or in the absence of 5-100 μM carbamathione. […] Referring to FIGS. 13 and 14, GRP 78, CHOP, Caspase-12, and cleaved Caspase-12 expression induced by hypoxia-reoxygenation were each inhibited by carbamathione.

[2] = test system: bilateral carotid artery occlusion (BCAO) mice; assay: Western blot of brain tissue in BCAO stroke model; type: in vivo
Procedure: (§2) For the bilateral carotid artery occlusion assay (BCAO) experiments, male Swiss Webster mice (20 weeks of age) were obtained from Charles River laboratory. The mice were allowed access to water only and kept fasting overnight before surgery. Mice were anesthetized with ketamine (100 mg/kg, i.p.) plus xylazine (10 mg/kg, i.p.). For induction of anesthesia, mice were exposed to a gaseous mixture consisting of 30% oxygen, 70% N2O and 0.5% isoflurane using a vaporizer. For maintenance of anesthesia, isoflurane concentration was used to 0.5%. Mice were breathing spontaneously via breathing mask throughout the surgical procedure. A rectal temperature probe was inserted. During surgery, mice were resting on a thermostat-controlled heating pad, ensuring a constant core temperature of 37.0±0.5° C.
(§3) While anesthesia was maintained as described above, each mouse was placed on its back, and its tail and paws were fixed to the heating pad using adhesive tape. A sagittal ventral midline incision (˜1 cm length) was performed. Both common carotid arteries (CCAs) were isolated, freed of nerve fibers, and occluded using non-traumatic aneurysm clips. Complete interruption of blood flow was confirmed under an operating microscope. After 30 min of ischemia, the aneurysm clips were removed from both CCAs. Restoration of blood flow (reoxygenation) was observed directly under the microscope. Sham-operated controls were subjected to the same surgical procedures except that CCAs were not occluded. The body temperature was monitored and maintained at 37° C.±0.5° C. during the immediate postoperative period until the animals recovered fully from anesthesia.
Animals were randomly assigned for sham, control, and experimental groups. Thereafter, in experimental group (carbamathione treated group, N=9), carbamathione (14 mg/kg in 0.3 mL saline 0.9%) was injected subcutaneously 30 min after occlusion and continued daily until the animal was sacrificed. In control groups (vehicle-treated group, N=9), vehicle (0.3 ml saline 0.9%) was injected subcutaneously 30 min after occlusion. Sham-operated group (N=6) received the same surgical procedure without occlusion of common carotid artery. After surgery, animals were allowed to recover from the anesthesia, and given food and water ad libitum. The animals were daily examined for body temperature and weight, and those who had body temperature more than 39° C. after 24 hour were excluded from the experiment.
For the Western blot assays, animals were deeply anesthetized by isoflurane (Phoenix) and decapitated, and then brains were rapidly removed. […] Protein concentrations of each sample solution were determined with a Bradford protein assay, and samples were stored at −80° C. until use. […]

[3] = test system: bilateral carotid artery occlusion (BCAO) mice; assay: Brain infarct by TTC staining in BCAO stroke model; type: in vivo; conditions: 14 mg/kg subcutaneously 30 min after occlusion
Procedure: as §2
While anesthesia was maintained as described above, each mouse was placed on its back, and its tail and paws were fixed to the heating pad using adhesive tape. A sagittal ventral midline incision (˜1 cm length) was performed. […] The body temperature was monitored and maintained at 37° C.±0.5° C. during the immediate postoperative period until the animals recovered fully from anesthesia. […]
Mice were euthanized 4 days after surgery. […] To assess lesion volume, TTC-stained slices (2, 4, 6, 8, and 10 mm from the frontal pole) were scanned using a scanner and analyzed by Image-J analysis software. […]

[4] = test system: bilateral carotid artery occlusion (BCAO) mice; assay: Corner test in BCAO stroke model; type: in vivo; conditions: 14 mg/kg s.c. daily; up to 4 days after BCAO; untreated BCAO ~90% to one side; FIG. 21
Procedure: as §2, with “During surgery, mice were resting on a thermostat-controlled heating pad, ensuring a constant core temperature of 37.0±0.5° C.” left out
While anesthesia was maintained as described above, each mouse was placed on its back, and its tail and paws were fixed to the heating pad using adhesive tape. […] The body temperature was monitored and maintained at 37° C.±0.5° C. during the immediate postoperative period until the animals recovered fully from anesthesia.
The Corner test, which determines an animal's asymmetric direction of turning when encountering a corner, is used as an indicator of brain injury. […] Each mouse took part in ten trials, after which we calculated the percentage of turns to each side, recording only those turns involving full rearing along one of the boards. […]

[5] = test system: PC-12 cells; assay: ATP assay of cell viability, PC-12 cells under hypoxia/reoxygenation; type: cell-based; conditions: 5-100 μM carbamathione; hypoxia and reoxygenation; without treatment about 47% of control; FIG. 9
Procedure: as §1

[6] = test system: bilateral carotid artery occlusion (BCAO) mice; assay: Locomotor activity on force-plate actometer in BCAO stroke model; type: in vivo; conditions: 14 mg/kg s.c. daily; 4 days after BCAO; FIG. 22
Procedure: as §2
as §3, with “After 30 min of ischemia, the aneurysm clips were removed from both CCAs. Restoration of blood flow (reoxygenation) was observed directly under the microscope. Sham-operated controls were subjected to the same surgical procedures except that CCAs were not occluded.” left out, “anesthesia. […]” for “anesthesia.”

[7] = test system: PC-12 cells; conditions: 10 mM glutamate for 24 hours
Procedure: PC-12 cells (purchased from ATCC, Manassas, Va., USA) were cultured in a petri dish for one week prior to use. PC-12 cells were maintained at 37° C./5% CO2 in an incubator, and fed every other day using F12-K medium supplemented with 5% (v/v) fetal bovine serum (FBS), 10% (v/v) heat-inactivated horse serum (HS) and 1% (v/v) penicillin-streptomycin solution. Experiments were performed on undifferentiated cells plated in 96-well plates at a density of approximately 5×10^4 cells/ml for the ATP assay. On first day of use, cells were harvested by first adding 2 mL trypsin and incubated for 15 minutes. 2 mL fresh medium was then used as a wash and cells were spun, and re-suspended. Cell density was determined by cell counting using a hemocytometer and a tissue culture microscope. After cell density was determined, 96-well plates and 6-well plates were plated with 2.5×10^4 cells per well and 5×10^5 cells per well for the adenosine 5′-triphosphate (ATP) assay and Western blot analysis, respectively.
Cell cultures were preincubated with 0.5 μM to 500 μM concentration of carbamathione for one hour. […] For the ATP assay, ATP solution was added to each well, and cells were incubated for 10 min after which time the amount of ATP was quantified through a luciferase reaction. The luminescence intensity was determined using a luminometer with lysates in a standard opaque-walled multi-well plate. […]

[8] = after 4 days, compared to vehicle treated group, FIG. 23
[9] = day 4 post BCAO, compared with vehicle treated group, FIG. 24

In the case of CCN(CC)C(=O)SC[C@H](NC(=O)CC[C@H](N)C(=O)O)C(=O)NCC(=O)O [carbamathione, S—(N,N-diethylcarbamoyl)glutathione], the “CHOP expression induced by hypoxia-reoxygenation” value ([1]; FIG. 13) is reported as “inhibited”, the “GRP 78 expression induced by hypoxia-reoxygenation” value ([1]; FIG. 13) is reported as “inhibited” and the “Caspase-12 expression induced by hypoxia-reoxygenation” value ([1]; FIG. 14) is reported as “inhibited”. For the same molecule, the “cleaved Caspase-12 expression induced by hypoxia-reoxygenation” value ([1]; FIG. 14) was “inhibited”, the “ATF4 expression induced by hypoxia-reoxygenation” value ([1]; FIG. 15) was “inhibited” and the “ATF6 expression induced by hypoxia-reoxygenation” value ([1]; FIG. 16) was “inhibited”. The “XBP1 expression induced by hypoxia-reoxygenation” value ([1]; FIG. 17) was “inhibited”, the “Bax expression (upregulation induced by hypoxia/reoxygenation)” value ([1]; FIG. 18) was “decreased the upregulation” and the “Bcl2 expression (downregulation induced by hypoxia/reoxygenation)” value ([1]; FIG. 18) was “increased the downregulation”. The “decrease in the Bcl2:Bax ratio induced by hypoxia/reoxygenation” value ([1]; FIG. 18) was “inhibited”, the “cleaved Caspase-3 expression (upregulation induced by hypoxia/reoxygenation)” value ([1]; FIG. 19) was “decreased the upregulation” and the AKT expression ([1]; hypoxia-reoxygenation, FIG. 12) was “no changes”. For the same molecule, the “Hsp 27 expression” value ([1]; hypoxia-reoxygenation, compared to hypoxia-reoxygenation alone, FIG. 10) was “greater over-expression”, the “Hsp 70 expression” value ([1]; hypoxia-reoxygenation, compared to hypoxia-reoxygenation alone, FIG. 11) was “greater over-expression” and the P-AKT expression ([1]; hypoxia-reoxygenation, compared to hypoxia-reoxygenation alone, FIG. 12) was “up-regulated”. The “CHOP expression in the brains” value [2, 8] was “decreased dramatically”, the “GRP 78 expression in the brains” value [2, 8] was “decreased dramatically” and the “Bax expression in the brains” value [2, 9] was “decreased expression”. The “Bcl2 expression in the brains” value [2, 9] was “significantly increased expression”, the “infarct size (TTC staining)” value ([3]; daily, 4 days after surgery, 2, 4, 6, 8, 10 mm from frontal pole, FIG. 20) was “noticeably reduced” and the “volume of the lesion” value ([3]; sections 2, 4, 6, 8 and 10 mm, 30 min transient BCAO, FIG. 20c) was “markedly reduced”. For the same molecule, the “asymmetric turning in Corner test” value [4] was “not significant differently from that seen in the sham-operated mice”, the “cell viability (ATP levels)” value [5] was “dramatically increased the cell viability” and the locomotor activity [6] was “statistically significantly different than BCAO with vehicle group”.
In the case of N[C@@H](CCC(=O)O)C(=O)O [glutamate], the “survival of PC-12 cells (ATP assay)” value [7] is reported as “about 45%”.
